In paper PMC4750701, “Role of Mitochondrial RNA Polymerase in the Toxicity of Nucleotide Inhibitors of Hepatitis C Virus” (Antimicrobial Agents and Chemotherapy, 2016):

Key:
RNA PolI = molecular target: T1, RNA PolI (Rattus norvegicus, UniProt O54889); experiment: RNA PolI inhibition assay; type: biochemical; conditions: NTP analogs 0 to 500 μM; read-out: Mean IC50 ± SD for RNA PolI
T1 construct: complexes were isolated from rat NSN1 cells and HeLa cells, respectively; made in house; host or cells: rat NSN1 cells expressing a FLAG-tagged Pol I subunit
T1 sequence (O54889 whole entry): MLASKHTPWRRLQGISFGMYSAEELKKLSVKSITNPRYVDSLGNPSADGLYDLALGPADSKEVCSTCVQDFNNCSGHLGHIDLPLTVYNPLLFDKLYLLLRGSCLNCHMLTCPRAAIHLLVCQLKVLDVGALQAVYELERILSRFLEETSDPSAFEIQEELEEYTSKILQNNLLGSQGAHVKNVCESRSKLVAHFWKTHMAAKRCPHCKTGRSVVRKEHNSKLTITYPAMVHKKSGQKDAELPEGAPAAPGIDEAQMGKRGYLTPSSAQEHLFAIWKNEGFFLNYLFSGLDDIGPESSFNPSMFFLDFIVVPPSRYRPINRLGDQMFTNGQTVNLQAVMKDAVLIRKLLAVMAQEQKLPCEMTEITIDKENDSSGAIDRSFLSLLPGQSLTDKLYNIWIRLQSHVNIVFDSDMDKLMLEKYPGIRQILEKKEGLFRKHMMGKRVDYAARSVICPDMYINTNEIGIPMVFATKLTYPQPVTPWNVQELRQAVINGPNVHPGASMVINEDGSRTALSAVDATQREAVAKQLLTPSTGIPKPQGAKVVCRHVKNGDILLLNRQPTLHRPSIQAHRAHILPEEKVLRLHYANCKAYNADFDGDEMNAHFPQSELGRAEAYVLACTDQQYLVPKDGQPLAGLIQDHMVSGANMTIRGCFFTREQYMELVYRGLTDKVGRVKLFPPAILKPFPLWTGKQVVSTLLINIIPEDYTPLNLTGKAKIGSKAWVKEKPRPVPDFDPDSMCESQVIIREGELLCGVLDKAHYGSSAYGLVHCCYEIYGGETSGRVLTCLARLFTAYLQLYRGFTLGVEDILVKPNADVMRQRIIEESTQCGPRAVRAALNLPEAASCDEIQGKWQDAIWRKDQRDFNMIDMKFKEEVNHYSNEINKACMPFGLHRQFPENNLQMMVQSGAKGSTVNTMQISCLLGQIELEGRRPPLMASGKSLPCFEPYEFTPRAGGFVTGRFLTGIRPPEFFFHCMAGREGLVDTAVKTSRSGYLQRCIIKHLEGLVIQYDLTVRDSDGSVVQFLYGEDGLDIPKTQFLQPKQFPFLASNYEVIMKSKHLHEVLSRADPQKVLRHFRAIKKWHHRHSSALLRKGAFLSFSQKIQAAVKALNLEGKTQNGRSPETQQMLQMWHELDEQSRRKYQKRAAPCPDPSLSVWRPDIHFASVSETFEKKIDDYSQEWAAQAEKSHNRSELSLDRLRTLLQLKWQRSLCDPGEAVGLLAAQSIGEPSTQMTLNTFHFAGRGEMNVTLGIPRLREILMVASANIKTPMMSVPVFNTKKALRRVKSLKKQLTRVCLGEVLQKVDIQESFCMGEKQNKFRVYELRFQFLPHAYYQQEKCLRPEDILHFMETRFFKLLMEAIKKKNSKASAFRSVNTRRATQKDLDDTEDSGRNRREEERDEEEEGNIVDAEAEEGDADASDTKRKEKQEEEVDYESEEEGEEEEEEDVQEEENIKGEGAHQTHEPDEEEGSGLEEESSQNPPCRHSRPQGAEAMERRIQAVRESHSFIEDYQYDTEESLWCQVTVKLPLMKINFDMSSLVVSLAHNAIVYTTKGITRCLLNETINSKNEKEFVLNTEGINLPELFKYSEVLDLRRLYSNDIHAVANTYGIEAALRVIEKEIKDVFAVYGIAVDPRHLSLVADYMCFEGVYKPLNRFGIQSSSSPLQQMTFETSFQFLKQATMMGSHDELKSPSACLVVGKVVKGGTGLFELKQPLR
Excerpt: (§1) Human DNA polymerase alpha, isolated from HeLa cell extracts, was from CHIMERx (Madison, WI). Recombinant human DNA polymerase beta, expressed in E. coli, was a gift from Zucai Suo at The Ohio State University. Recombinant human DNA polymerase gamma (including both the large subunit and the small subunit) was cloned, expressed, and purified from insect cells by Gilead Sciences (Foster City, CA) ([13]). RNA PolII was purchased as part of the HeLaScribe nuclear extract in vitro transcription system kit from Promega (Madison, WI). The recombinant human PolRMT and the transcription factors mitochondrial transcription factor A (mtTFA) and B2 (mtTFB2) were purchased from Enzymax (Lexington, KY). FLAG epitope-tagged RNA PolI and PolIII complexes were isolated from rat NSN1 cells and HeLa cells, respectively ([17], [18]). The inhibition of DNA polymerases alpha, beta, and gamma, PolRMT, and PolII and the rate of single-nucleotide incorporation by PolRMT have been described previously in detail ([12], [13], [19]). Inhibition of RNA PolI and PolIII was studied using published methods ([20], [21]). All concentrations were final unless noted otherwise. For the RNA PolI inhibition assay, a reaction mixture containing 50 mM HEPES (pH 7.9), 20% glycerol, 100 mM KCl, 1 mM dithiothreitol (DTT), 50 μg/ml calf thymus DNA, 4 mM MgCl2, 5 or 80 μM UTP (0.25 μl of [5,6-^3H]UTP, >25 Ci/mmol; PerkinElmer), 1 mM noncompeting NTP, competing NTP (5 μM for GTP, CTP, and UTP and 25 μM for ATP), and various concentrations (0 to 500 μM) of NTP analogs was preincubated at 30°C for 5 min. […] After incubation at 30°C for 20 min to 1 h, the reactions were terminated by pipetting the mixtures onto DEAE-cellulose discs (DE81; Whatman), and the products analyzed as described previously ([20], [21]).

RNA PolIII = molecular target: T2, RNA PolIII (Homo sapiens, UniProt O14802+Q9NW08); experiment: RNA PolIII inhibition assay; type: biochemical; conditions: competing NTP 100 μM CTP and GTP, 500 μM ATP; read-out: Mean IC50 ± SD for RNA PolIII
T2 construct: complexes were isolated from rat NSN1 cells and HeLa cells, respectively; made in house; host or cells: HeLa cells expressing a FLAG-tagged Pol III subunit
Excerpt: as §1
The RNA PolIII inhibition assay was conducted in a similar manner, except that the concentrations of the competing NTP were modified to 100 μM for CTP and GTP and 500 μM for ATP to compensate for the low assay signal at lower NTP concentrations.

RNA PolII = molecular target: T3, RNA PolII (Homo sapiens, UniProt P24928+P30876); experiment: Inhibition of RNA PolII (HeLaScribe nuclear extract transcription); type: biochemical; conditions: nucleotide analogs (Table 6); read-out: Mean IC50 ± SD for RNA PolII
T3 construct: purchased as part of the HeLaScribe nuclear extract in vitro transcription system kit; purchased Promega (Madison, WI); host or cells: HeLa nuclear extract (endogenous enzyme)
Excerpt: (§2) Activated fish sperm DNA was purchased from USB/Affymetrix (Santa Clara, CA) and used as a template for the DNA polymerases alpha, beta, and gamma. The DNA template used in the RNA Pol II assay was a 1,188-bp restriction fragment containing the cytomegalovirus (CMV) immediate early promoter (Promega, Madison, WI). The RNA and DNA oligonucleotides used in the mitochondrial RNA polymerase assay (see Table S1 in the supplemental material) were synthesized and PAGE purified by Thermo Scientific/Dharmacon (Lafayette, CO). RNA primer R12 was 5′-^32P-phosphorylated with [γ-^32P]ATP (3,000 Ci/mmol) and T4 kinase (New England BioLabs, Ipswich, MA).
as §1

[1] = molecular target: T4, Recombinant human DNA polymerase beta (Homo sapiens, UniProt P06746); experiment: Inhibition of human DNA polymerase beta; type: biochemical; conditions: triphosphate form of the compound tested; read-out: Mean IC50 ± SD for DNA Pol β
T4 construct: host or cells: E. coli
Excerpt: as §2, §1

[2] = molecular target: T5, Recombinant human DNA polymerase gamma (Homo sapiens, UniProt P54098); experiment: Inhibition of human DNA polymerase gamma; type: biochemical; conditions: triphosphate form of the compound tested; read-out: Mean IC50 ± SD for DNA Pol γ
T5 construct: made in house; host or cells: insect cells
T5 sequence (P54098 1-1239): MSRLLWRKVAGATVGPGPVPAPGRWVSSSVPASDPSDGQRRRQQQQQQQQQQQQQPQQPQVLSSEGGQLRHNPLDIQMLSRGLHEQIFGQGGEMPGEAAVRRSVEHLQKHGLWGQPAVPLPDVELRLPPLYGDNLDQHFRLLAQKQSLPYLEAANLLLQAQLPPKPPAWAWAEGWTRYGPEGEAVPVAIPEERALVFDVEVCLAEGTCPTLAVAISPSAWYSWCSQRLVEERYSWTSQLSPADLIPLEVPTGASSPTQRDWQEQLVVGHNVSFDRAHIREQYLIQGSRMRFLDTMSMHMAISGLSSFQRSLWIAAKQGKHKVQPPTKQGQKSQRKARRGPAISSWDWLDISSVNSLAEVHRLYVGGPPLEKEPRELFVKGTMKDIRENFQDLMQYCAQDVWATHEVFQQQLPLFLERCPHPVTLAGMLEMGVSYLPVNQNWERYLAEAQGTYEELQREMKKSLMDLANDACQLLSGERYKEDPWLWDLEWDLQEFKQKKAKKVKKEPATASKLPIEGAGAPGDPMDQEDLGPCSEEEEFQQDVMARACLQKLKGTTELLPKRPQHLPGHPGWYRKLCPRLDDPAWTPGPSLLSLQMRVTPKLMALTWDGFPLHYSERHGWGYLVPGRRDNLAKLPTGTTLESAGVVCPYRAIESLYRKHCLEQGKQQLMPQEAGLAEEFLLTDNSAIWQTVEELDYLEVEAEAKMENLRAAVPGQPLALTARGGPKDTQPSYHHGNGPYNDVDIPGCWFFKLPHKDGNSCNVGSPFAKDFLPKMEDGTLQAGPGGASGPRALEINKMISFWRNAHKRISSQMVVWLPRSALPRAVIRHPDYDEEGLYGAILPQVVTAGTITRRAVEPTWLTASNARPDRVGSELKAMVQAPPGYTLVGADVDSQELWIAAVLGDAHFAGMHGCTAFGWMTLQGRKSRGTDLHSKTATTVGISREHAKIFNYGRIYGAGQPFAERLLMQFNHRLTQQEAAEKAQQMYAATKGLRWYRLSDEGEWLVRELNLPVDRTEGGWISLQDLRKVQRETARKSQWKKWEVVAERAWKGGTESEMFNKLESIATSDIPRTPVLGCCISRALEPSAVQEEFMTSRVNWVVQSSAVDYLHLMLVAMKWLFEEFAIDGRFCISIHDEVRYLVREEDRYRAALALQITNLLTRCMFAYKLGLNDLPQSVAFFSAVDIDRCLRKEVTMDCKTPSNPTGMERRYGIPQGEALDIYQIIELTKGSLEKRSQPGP
T5 sequence (Q9UHN1 26-485 partner limits assumed): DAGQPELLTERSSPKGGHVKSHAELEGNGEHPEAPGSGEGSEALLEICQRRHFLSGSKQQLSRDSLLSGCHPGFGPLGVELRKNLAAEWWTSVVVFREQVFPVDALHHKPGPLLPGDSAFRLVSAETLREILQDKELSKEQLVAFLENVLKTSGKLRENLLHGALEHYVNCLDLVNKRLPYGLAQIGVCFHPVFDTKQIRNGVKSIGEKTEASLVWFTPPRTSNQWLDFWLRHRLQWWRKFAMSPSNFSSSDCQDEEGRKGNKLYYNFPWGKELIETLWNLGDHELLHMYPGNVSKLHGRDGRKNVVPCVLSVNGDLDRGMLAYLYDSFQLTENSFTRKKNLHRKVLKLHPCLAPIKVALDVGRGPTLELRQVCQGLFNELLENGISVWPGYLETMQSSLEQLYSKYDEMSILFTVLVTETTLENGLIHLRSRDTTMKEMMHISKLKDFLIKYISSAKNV
Excerpt: as §2, §1

[3] = Cytotoxicity in MT-4 T-cells, 5-day treatment; conditions: human, MT-4 cells
Protocol: Primary human hepatocytes were from Bioreclamation IVT (Westbury, NY) or Life Technologies (Carlsbad, CA).
(§4) All cells were cultured at 37°C in a 5% CO2 incubator with 90% humidity unless noted otherwise. […] All cells were treated with the various compounds for 5 days, except for human erythroid and myeloid progenitors, which were treated for 14 days. After the incubation period, cell viability was measured by the addition of CellTiter Glo viability reagents (Promega, Madison, WI). The luminescence signal was quantified on an Envision luminescence plate reader (PerkinElmer, Waltham, MA) after incubation of the reagents and cells for 10 min at room temperature. […] CC50 values were calculated as the average of the results of three or four independent experiments.

[4] = Cytotoxicity in HepG2 (galactose) cells, 5-day treatment; conditions: human, HepG2 cells (galactose)
Protocol: as §4
Cell Culture and Cytotoxicity Studies
(§5) The Huh-7 cells were maintained in growth medium containing Dulbecco's Modified Eagle
(§6) Medium (DMEM, Cellgro) supplemented with 1% Nonessential Amino Acids (NEAA, Cellgro,
(§7) Manassas, VA), 10% fetal bovine serum (FBS, HyClone, Logan, UT) and 1% Penicillin-
(§8) streptomycin-glutamate (PSG, Invitrogen, Carlsbad, CA). The cells were passaged twice weekly
(§9) and maintained at 90% confluence densities.
(§10) The HepG2 cells were maintained in Eagle’s Minimum Essential Medium (EMEM) from ATCC
(§11) (Manassas, VA) supplemented with 10% FBS, 100 units/mL penicillin and 100 µg/mL
(§12) streptomycin (P/S) (Gibco). The cells were passaged twice weekly and maintained at 90%
(§13) The PC-3 cells were maintained in Kaighn’s F12 medium (Gibco, Carlsbad, CA) supplemented
(§14) with 10% FBS (HyClone, Logan, UT), 100 units/mL penicillin and 100 µg/mL streptomycin
(§15) (P/S) (Gibco). The cells were passaged twice weekly and maintained at 90% confluence. Cells
(§16) between passages 4 and 15 were used in the assays.
(§17) The fibroblast cell line MRC-5 cell line derived from normal lung tissue, was purchased from
(§18) ATCC (Manassas, VA) and cultured in Minimum Essential Medium (MEM) (Cellgro, Manassas,
(§19) VA) supplemented with 10% FBS (HyClone, Logan, UT) and 1% PSG (Invitrogen). The cells
(§20) were passaged twice weekly and maintained at 90% confluence densities.

[5] = test system: mitochondrial spare respiratory capacity; experiment: Oxygen consumption rate / spare respiratory capacity in PC-3 cells; conditions: human, pH 7.4
Protocol: (§21) Mitochondrial respiration was monitored by measuring the rate of oxygen consumption (OCR) of PC-3 cells after 3-day treatments with the compounds, using a Seahorse extracellular flux analyzer (XF^e-96) based on published protocols ([22][–][24]). The optimal cell seeding was determined by measuring the basal OCR of PC-3 cells that were seeded at different densities of 2.5 × 10^3, 5 × 10^3, 7.5 × 10^3, and 10 × 10^3 cells/well in XF 96-well plates (Seahorse Bioscience, North Billerica, MA) and incubated with 0.5% dimethyl sulfoxide (DMSO) for 3 days. […] Each reagent in the Mito Stress test kit (Seahorse Biosciences), i.e., ATP synthase inhibitor oligomycin, mitochondrial uncoupler carbonyl cyanide-4-(trifluoromethoxy)phenylhydrazone (FCCP), and a fixed-ratio mixture of the mitochondrial complex I (NADH dehydrogenase) inhibitor rotenone and the complex III (CoQH2-cytochrome c reductase) inhibitor antimycin A, was titrated. The lowest concentration that reached the maximal effect was chosen for each reagent. The OCR signals were normalized by cell numbers using DNA content determined by Hoechst's stain as described below.
(§22) PC-3 cells were seeded at a density of 5 × 10^3 cells/well in XF 96-well plates and incubated with the compounds for 3 days. On the day of the assay, the cell medium was replaced with XF assay medium (pH 7.4) containing 10 mM glucose and 1 mM freshly prepared pyruvate. Mitochondrial respiration was monitored by measuring OCR on a Seahorse extracellular flux analyzer (XF^e-96). All concentrations listed are the final concentration after mixing unless noted otherwise. […] Spare respiratory capacity was obtained by subtracting the rate of basal respiration from the rate of maximal respiration.
(§23) The cells were lysed by freezing at −80°C for >2 h. […] In parallel, another set of cells was treated with the compounds for 3 days and the ATP levels were measured using CellTiter Glo viability reagents (Promega, Madison, WI).

[6] = test system: mitochondrial spare respiratory capacity in PC-3 cells; experiment: as above; conditions: PC-3 cells, 3-day treatments
Protocol: as §21, §22, §23

[7] = Cytotoxicity in stimulated PBMCs, 5 days; conditions: human, stimulated PBMCs
Protocol: Human peripheral blood mononuclear cells (PBMCs) were isolated from human buffy coats obtained from healthy volunteers (Stanford Blood Bank, Palo Alto, CA) using standard Ficoll separation and stimulated as described elsewhere ([13]) and were tested at both quiescent and stimulated stages. Quiescent PBMCs were stimulated with 10 units per ml of recombinant human interleukin 2 (hIL-2) and 1 μg per ml phytohemagglutinin P (PHA-P) for 48 h prior to drug treatment.
as §4
Human peripheral blood mononuclear cells (PBMCs) were isolated from human buffy coats
obtained from normal healthy volunteers (Stanford Medical School Blood Center, Palo Alto,
CA). Total PBMCs were isolated from buffy coats using standard Ficoll separation and sterile
cellular isolation techniques performed in a bio-safety cabinet (1). Except where noted, the
procedure was carried out at room temperature. The final PBMCs pellet was resuspended in
Logan, UT), penicillin 100 units/mL and streptomycin 100 µg/mL (Gibco). For quiescent
PBMCs cultures, total cells were seeded in 96-well plates at a density of 1 x 10^6 cells per well, followed by immediate drug treatment. Stimulated PBMCs cultures were set up by seeding the freshly isolated PBMCs in T-175cm2 tissue culture flasks in 100 mL of RPMI containing the same components as the ones used for the quiescent PBMCs but with the addition of 10 units per mL of recombinant human interleukin-2 (hIL-2, Roche, Indianapolis, IN), and 1 µg per mL phytohemagglutinin-P (PHA-P, Sigma-Aldrich, St. Louis, MO) at density of 2  10^6 cells per mL for 48 hours at 37C in a 5% CO2 incubator with 90% humidity, prior to drug treatment.

[8] = test system: mitochondrial DNA-encoded cytochrome c oxidase (COX-1; complex IV) protein level; experiment: Mitochondrial protein synthesis assay (COX-1, MitoBiogenesis in-cell ELISA) in PC-3 cells; type: cell-based, human; conditions: human; PC-3 cells, COX-1, 5 days; read-out: Mean CC50 ± SD causing Mitochondrial toxicity: Protein synthesis
Protocol: (§3) PC-3 cells were treated with the compounds for 5 days and analyzed with the MitoTox MitoBiogenesis in-cell enzyme-linked immunosorbent assay (ELISA) kit (MitoSciences/Abcam, Eugene, Oregon) as described previously ([13]). The assay uses quantitative immunocytochemistry to measure the protein levels of nuclear DNA-encoded succinate dehydrogenase (SDH-A; complex II [succinate dehydrogenase]) and mitochondrial DNA-encoded cytochrome c oxidase (COX-1; complex IV [cytochrome c oxidase]) in cultured cells.

[9] = test system: mitochondrial DNA-encoded cytochrome c oxidase (COX-1); experiment: as above; type: cell-based, human; conditions: PC-3 cells
Protocol: as §3

[10] = Cytotoxicity in MRC5 fibroblasts, 5-day treatment; conditions: human, MRC5 fibroblasts
Protocol: as §4
Cell Culture and Cytotoxicity Studies
as §5, §6, §7, §8, §9, §10, §11, §12, §13, §14, §15, §16, §17, §18, §19, §20

[11] = Bone marrow erythroid progenitor colony assay, 14 days; type: cell-based, human; conditions: human, human bone marrow erythroid progenitors, read-out: Mean CC50 ± SD in Bone marrow cells Erythroid
[12] = Bone marrow myeloid progenitor colony assay, 14 days; type: cell-based, human; conditions: human, human bone marrow myeloid progenitors, read-out: Mean CC50 ± SD in Bone marrow cells Myeloid
[13] = Cytotoxicity in Huh7 cells, 5-day treatment (CellTiter Glo); conditions: human, Huh-7 cells
Protocol: as §4
Cell Culture and Cytotoxicity Studies
as §5, §6, §7, §8, §9, §10, §11, §12, §13, §14, §15, §16, §17, §18, §19, §20

[14] = Cytotoxicity in quiescent PBMCs, 5 days; conditions: human, quiescent PBMCs
[15] = test system: nuclear DNA-encoded succinate dehydrogenase (SDH-A; complex II) protein level; experiment: Nuclear protein synthesis (SDH-A, MitoBiogenesis in-cell ELISA) in PC-3 cells; type: cell-based, human; conditions: human, read-out: Mean CC50 ± SD causing General cellular toxicity: Protein synthesis
Protocol: as §3

[16] = Cytotoxicity / ATP level in PC-3 cells, 5-day treatment; conditions: human, PC-3 cells
Protocol: as §4
Cell Culture and Cytotoxicity Studies
as §5, §6, §7, §8, §9, §10, §11, §12, §13, §14, §15, §16, §17, §18, §19, §20

[17] = Cytotoxicity in primary human hepatocytes, 5 days; conditions: human, primary human hepatocytes
recombinant human PolRMT = molecular target: T6, recombinant human PolRMT (Homo sapiens, UniProt O00411); experiment: Single-nucleotide incorporation by PolRMT; type: biochemical; conditions: triphosphate form, fixed saturating concentration 500 μM, rate relative to corresponding natural rNTP
T6 construct: purchased Enzymax (Lexington, KY)
T6 sequence (O00411 42-1230): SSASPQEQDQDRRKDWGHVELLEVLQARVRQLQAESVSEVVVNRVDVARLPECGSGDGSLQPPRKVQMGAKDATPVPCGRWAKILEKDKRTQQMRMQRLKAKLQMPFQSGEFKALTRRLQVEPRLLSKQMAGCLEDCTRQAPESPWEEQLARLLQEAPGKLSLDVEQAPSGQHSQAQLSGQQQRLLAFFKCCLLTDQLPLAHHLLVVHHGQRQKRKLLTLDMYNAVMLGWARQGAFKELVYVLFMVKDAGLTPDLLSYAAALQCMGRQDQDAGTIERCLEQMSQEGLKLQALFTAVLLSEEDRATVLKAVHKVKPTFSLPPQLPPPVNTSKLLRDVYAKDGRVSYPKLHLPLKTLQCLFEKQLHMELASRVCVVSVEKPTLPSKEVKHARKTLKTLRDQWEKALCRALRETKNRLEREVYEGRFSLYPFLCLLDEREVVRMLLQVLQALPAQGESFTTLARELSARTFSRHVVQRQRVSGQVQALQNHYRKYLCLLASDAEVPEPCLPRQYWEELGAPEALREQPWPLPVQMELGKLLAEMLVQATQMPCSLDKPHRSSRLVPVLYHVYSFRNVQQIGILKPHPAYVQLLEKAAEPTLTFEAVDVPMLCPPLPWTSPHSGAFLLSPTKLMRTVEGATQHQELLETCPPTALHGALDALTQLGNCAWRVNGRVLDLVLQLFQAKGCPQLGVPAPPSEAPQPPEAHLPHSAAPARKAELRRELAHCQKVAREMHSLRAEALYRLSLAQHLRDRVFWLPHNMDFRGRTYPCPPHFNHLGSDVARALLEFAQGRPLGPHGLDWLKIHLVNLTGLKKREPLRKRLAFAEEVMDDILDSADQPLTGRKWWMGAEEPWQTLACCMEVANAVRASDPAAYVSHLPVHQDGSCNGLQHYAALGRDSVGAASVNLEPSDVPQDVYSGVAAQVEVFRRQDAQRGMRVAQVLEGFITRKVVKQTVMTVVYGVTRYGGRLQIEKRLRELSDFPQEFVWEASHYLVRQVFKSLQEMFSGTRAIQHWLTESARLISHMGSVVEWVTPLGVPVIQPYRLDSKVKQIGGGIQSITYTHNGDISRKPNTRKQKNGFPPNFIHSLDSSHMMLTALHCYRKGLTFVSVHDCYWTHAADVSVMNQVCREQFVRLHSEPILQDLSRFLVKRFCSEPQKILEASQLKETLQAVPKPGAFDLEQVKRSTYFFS
Excerpt: as §2, §1
Supplementary Table S1: RNA primer and templates used in mitochondrial RNA
polymerase single nucleotide incorporation assay.
Oligonucleotides Sequencesa
Primer (R12) 5’-[…]-3’
Templates (D18) 3’-[…]-5’
a The bold letter in the template sequences denotes the bases that pair with the incoming NTP. […]

Work on `C[C@@]1(O)[C@H](O)[C@@H](COP(=O)(O)OP(=O)(O)OP(=O)(O)O)O[C@H]1n1cnc2c(N)ncnc21` [2′CMeATP] yielded an IC50 (RNA PolI) of 190 ± 40 µM, an IC50 (RNA PolIII) of over 500 µM and an IC50 (RNA PolII) of over 500 µM.
Compound `C[C@@]1(O)[C@H](O)[C@@H](COP(=O)(O)OP(=O)(O)OP(=O)(O)O)O[C@H]1n1ccc(N)nc1=O` [2′CMeCTP] has an IC50 (RNA PolI) of 260 ± 40 µM, an IC50 (RNA PolIII) of over 500 µM and an IC50 (RNA PolII) of over 500 µM.
For `Cc1cn([C@H]2CC[C@@H](COP(=O)(O)OP(=O)(O)OP(=O)(O)O)O2)c(=O)[nH]c1=O` [3′dTTP], the IC50 [1] was 1.9 ± 0.8 µM and the IC50 [2] was 1.2 ± 0.6 µM.
`O=C(N[C@H](CO)[C@H](O)c1ccc([N+](=O)[O-])cc1)C(Cl)Cl` [Chloramphenicol] showed a CC50 at 5 days [3] of over 89 µM, a CC50 at 5 days [4] of over 89 µM and a CC50 at 3 days [5] of 4.5 ± 1.5 µM. The “selectivity of effect on spare respiratory capacity versus DNA and ATP levels” value [6] was “specifically inhibited mitochondrial spare respiratory capacity”, the CC50 at 5 days [7] was over 100 µM and the CC50 at 5 days [8] was 2.6 ± 0.6 µM. For the same compound, the “selectivity of effect on COX-1 versus SDH-A and ATP levels” value ([9]; 5-day treatments) was “specifically inhibited COX-1 synthesis”, the CC50 at 5 days [10] was over 89 µM and the CC50 at 14 days [11] was 82 ± 29 µM. The CC50 at 14 days [12] was over 100 µM, the CC50 at 5 days [13] was over 89 µM and the CC50 at 5 days [14] was over 100 µM. The CC50 at 5 days [15] was over 50 µM, the CC50 at 5 days [16] was 16 ± 3 µM and the CC50 at 5 days [17] was over 100 µM.
In the case of `NC(=O)c1ncn([C@@H]2O[C@H](CO)[C@@H](O)[C@H]2O)n1` [RBV, ribavirin], the “effect on mitochondrial or nuclear protein synthesis or ATP level” value ([9]; 5-day treatment, 10 μM) is reported as “no appreciable effect”.
With `CC(C)C(=O)OC[C@H]1O[C@@H](n2ccc(N)nc2=O)[C@](C)(F)[C@@H]1OC(=O)C(C)C` [mericitabine] the “Substrate incorporation (% of NTP [mean ± SD]) of PolRMT” value (recombinant human PolRMT) was < 1 % of NTP.
